Experimental data from article PMC12456999, “Sulfonyl Homoserine Lactones Are Tunable Probes to Inhibit the Quorum Sensing Receptor RhlR and Reduce Swarming Motility in Pseudomonas aeruginosa” (ACS Infectious Diseases, 2025).
Like-named read-outs stand apart in the source and are kept apart here. Marks after values point to notes of the source that are not given here.

Legend:
RhlR = target: T1, RhlR (Pseudomonas aeruginosa, UniProt P54292); assay: E. coli (JLD271) RhlR reporter antagonism assay, in competition with BHL; format: cell-based; details: for max. RhlR inhibition (%): BHL at 10 μM set to 0%, media control set to 100%; for potency gain: 33 vs 16, 43 vs 24, 86 vs 45
T1 construct: expressed in transfected cells; host or cells: E. coli JLD271 (K-12 ΔlacX74 sdiA271::Cam) carrying pJN105-R2 (RhlR expression) and pSC11-rhlI (rhlI'-lacZ reporter)
T1 sequence (P54292 whole entry): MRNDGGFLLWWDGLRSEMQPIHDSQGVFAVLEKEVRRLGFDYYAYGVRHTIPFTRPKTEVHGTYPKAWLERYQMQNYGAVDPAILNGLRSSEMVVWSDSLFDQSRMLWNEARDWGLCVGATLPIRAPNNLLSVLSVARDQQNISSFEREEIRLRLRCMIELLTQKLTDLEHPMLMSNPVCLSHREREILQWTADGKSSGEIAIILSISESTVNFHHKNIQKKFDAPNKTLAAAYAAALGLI
Description: To start, the sulfonyl HLs were evaluated for their ability to antagonize RhlR using a previously described E. coli strain (JLD271) harboring a RhlR expression plasmid and a rhlI reporter plasmid. This E. coli reporter produces RhlR, and protein activity in the presence of an added small molecule can be measured via the production of β-galactosidase as quantified via luminescence (see Methods). Compounds were screened in competition against RhlR’s native ligand, BHL (at its EC50 value in this strain, 10 μM), over a range of concentrations to generate antagonism dose–response curves (see Supporting Information) and calculate IC50 values (listed in Table ). A small set of compounds was also screened for RhlR agonism in the E. coli reporter; the agonism assay format was identical to the antagonism assay, except no BHL was added.
RhlR activity in E. coli strain JLD271 (ΔsdiA) was measured via a β-galactosidase reporter (rhI-lacZ) using the Promega Beta-Glo Assay System as previously described. RhlR activity in P. aeruginosa PA14 (ΔrhlIΔlasI) was measured via a GFP reporter (rhlA-gfp). […] See Supporting Information for both reporter protocols.
Supporting Information — Aguirre-Figueroa et al.
E. coli and P. aeruginosa RhlR reporter assay protocols.
E. coli RhlR reporter assay. RhlR activity in E. coli strain JLD271 (ΔsdiA) was measured via a β-galactosidase reporter using the Promega Beta-Glo® Assay System as previously described.10 A schematic of the reporter plasmids and assay protocol is shown in Scheme S1. Briefly, a single colony of E. coli JLD271 harboring the RhlR expression plasmid pJN105-R and the rhlI-lacZ transcriptional fusion reporter pSC11-R (Table S1) was grown in LB medium with 100 μg/mL ampicillin and 10 μg/mL gentamicin overnight (~16 h). The culture was diluted 1:10 in fresh LB medium and grown to an OD600 = 0.25 (0.23–0.28) (~0.5 h). Arabinose was added to a final concentration of 4 mg/mL to induce the expression of pJN105-R. Aliquots (2 μL) of compound DMSO stock solution or serial dilution were added to the inner wells (i.e., non-periphery rows) of a 96-well microtiter plate. To six inner wells, DMSO alone (vehicle) was added as a negative control. For agonism assays, BHL was added to six inner wells as a positive control (to achieve 1 mM). For antagonism assays, BHL was added to six inner wells as a positive control and to all of the other sample wells except for the vehicle control wells (to achieve 10 μM ). Subculture (198 μL) was then dispensed into each inner well. To the outer (periphery) wells, 200 μL of water were added to maintain humidity during incubation. Plates were then incubated for 4 h (shaking) at 37 °C.
Scheme S1. Schematic of E. coli reporter plasmids and assay. (A) Representation of plasmids used in the heterologous reporter system. (B) General reporter assay workflow. BioRender used in […]
After the incubation period, the OD600 of each well was measured using a plate reader. Cell dilution plates were prepared by transferring 10 μL from the incubated culture plate wells to a fresh 96-well plate and adding 90 μL of 18 MΩ water to each well. Next, 10 μL aliquots of diluted Beta-Glo® reagent (1:2 with 18 MΩ water) were added to each well of a white 384-well microtiter plate, followed by 10 μL of culture from each well of the dilution plate. The 384-well plate was incubated (without shaking; i.e., static) for 30 min at 30 °C. After incubation, luminescence of each well was measured using a plate reader. To determine levels of RhlR activity, raw luminescence was divided by OD600 to correct for growth variation and then normalized to the negative (0%) and positive (100%) control wells.
Dose-response reporter assay data for compounds in the E. coli RhlR reporter.
Dose-response curves for RhlR antagonism by compounds against 10 μM BHL using the E. coli JLD271 RhlR reporter are provided below. Compound names are indicated on the x-axis of each plot.
All assays performed in triplicate as at least three separate biological replicates. […]

bacterial growth = assay: Effect on bacterial growth (OD600 over time); format: cell-based; details: at >2 mM concentrations
Description: All new compounds were fully characterized for purity and identity (see Supporting Information). […] The remaining compounds had no effect on growth over the concentration range tested. All compounds were tested in bacteriological assays in triplicate and in at least three separate trials using unique cultures. IC50 and EC50 values in reporter assays were calculated using GraphPad Prism software (version 9.0) with a variable slope sigmoidal curve fit.

[1] = IC50, E. coli JLD271 RhlR reporter, against 10 μM BHL
[2] = E. coli JLD271 RhlR reporter, against 10 μM BHL
[3] = read-out: inhibitory potency on average (74, 75 and 18), average over the C4, C5 and C6 ASHLs, E. coli RhlR reporter

Row | Structure (SMILES) | max. RhlR inhibition (%) (RhlR; E. coli RhlR reporter) | IC50 (RhlR; [1]) [µM] | also measured
1 | O=C1OCC[C@@H]1NS(=O)(=O)c1cccc(Cl)c1 [Compound 28, 3-chloro-BSHL] | 97% | 143 | fold more potent than 26 and 27 (RhlR; E. coli RhlR reporter IC50): 3 fold
2 | O=C1OCC[C@@H]1NS(=O)(=O)Cc1ccc(F)cc1 [Compound 22, 4-F BnSHL] | 94% | 205 | fold more potent in RhlR than 13 or 16 (RhlR; E. coli RhlR reporter IC50): approximately 3 fold
3 | O=C1OCC[C@@H]1NS(=O)(=O)Cc1cccc(Cl)c1 [Compound 33, 3-Cl BnSHL] | 99% | 125 | potency gain (RhlR; E. coli RhlR reporter IC50): ≤ 40 fold; effect on bacterial growth (bacterial growth): modest effect on bacterial growth
4 | Cc1ccc(CS(=O)(=O)N[C@H]2CCOC2=O)cc1 [Compound 13, 4-Me BnSHL] | 90% | 918 | fold less potent than parent 4-Me PHL (RhlR; E. coli RhlR reporter IC50, comparator printed as 19): ~170 fold
5 | O=C1OCC[C@@H]1NS(=O)(=O)c1ccccc1F [Compound 92, 2-fluoro-BSHL] | 91% | 863 | –
6 | O=C1OCC[C@@H]1NS(=O)(=O)c1cccc(Cl)c1Cl [Compound 42, 2,3-di-Cl BSHL] | 95% | 67.8 | fold lower IC50 value than 3-Cl BSHL (28) (RhlR; E. coli RhlR reporter IC50): over 2 fold
7 | O=C1OCC[C@@H]1NS(=O)(=O)c1ccc(F)c(C(F)(F)F)c1 [Compound 76] | 84% | 69.4 | –
8 | CCCS(=O)(=O)N[C@H]1CCOC1=O [Compound 72, C3-AHSL] | 45 ^f % | – | activity profile in RhlR (RhlR; E. coli RhlR reporter dose-response curves): weak partial agonist
9 | O=C1OCC[C@@H]1NS(=O)(=O)c1c(Cl)cccc1Cl [Compound 89, 2,6-di-Cl-BSHL] | 86% | > 1000 | –
10 | O=C1OCC[C@@H]1NS(=O)(=O)Cc1ccc(Cl)c(Cl)c1 [Compound 44, 3,4-di-Cl BnSHL] | 82% | 205 | –
11 | Cc1cccc(S(=O)(=O)N[C@H]2CCOC2=O)c1 [Compound 93] | 95% | 127 | –
12 | O=C1OCC[C@@H]1NS(=O)(=O)c1ccc(F)cc1 [Compound 91] | 97% | 301 | –
13 | O=C1OCC[C@@H]1NS(=O)(=O)Cc1ccc(Br)cc1 [Compound 19, 4-Br BnSHL] | 77% | 348 | fold more potent in RhlR than 13 or 16 (RhlR; E. coli RhlR reporter IC50): approximately 3 fold
14 | O=C1OCC[C@@H]1NS(=O)(=O)Cc1ccc([N+](=O)[O-])cc1 [Compound 16, 4-NO2 BnSHL] | 97% | 1290 | –
15 | O=C1OCC[C@@H]1NS(=O)(=O)c1ccc(F)c(Cl)c1 [Compound 64, 3-Cl, 4-F BSHL] | 90% | 31.3 | fold higher potency relative to 3,4-di-Cl BSHL (43) (RhlR; E. coli RhlR reporter IC50): 2 fold; effect on bacterial growth (bacterial growth): modest effect on bacterial growth
16 | O=C1OCC[C@H]1NS(=O)(=O)c1ccc(Cl)c(Cl)c1 [Compound 55, 3,4-di-Cl BSHL] | 99% | 195 | –
17 | O=C1OCC[C@@H]1NS(=O)(=O)c1cc(F)c(F)c(F)c1 [Compound 86, 3,4,5-F BSHL] | 80% | 24.5 | potency gain (RhlR; E. coli RhlR reporter IC50): ≤ 40 fold; fold higher potency relative to 3,4-di-Cl BSHL (43) (RhlR; E. coli RhlR reporter IC50): over 2 fold
18 | O=C(Cc1ccc(C(F)(F)F)cc1)N[C@H]1CCOC1=O [Compound C20, 4-CF3 PHL, reference compound] | 93% | 10.3 | –

Row | Structure (SMILES) | max. RhlR inhibition (%) (RhlR; E. coli RhlR reporter) | IC50 (RhlR; [1]) [µM] | also measured
19 | O=C1OCC[C@@H]1NS(=O)(=O)c1ccc(F)c([N+](=O)[O-])c1 [Compound 71, 3-NO2,4-F BSHL] | 62% | 257 | –
20 | O=C1OCC[C@@H]1NS(=O)(=O)c1cc(Cl)c(F)c(Cl)c1 [Compound 87, 3,5-Cl-4F BSHL] | 85% | 68 | fold higher potency relative to 3,4-di-Cl BSHL (43) (RhlR; E. coli RhlR reporter IC50): no change in potency
21 | O=C1OCC[C@@H]1NS(=O)(=O)c1cc(Cl)ccc1Cl [Compound 90, 2,5-di-Cl BSHL] | 92% | 1100 | –
22 | O=C1OCC[C@@H]1NS(=O)(=O)c1ccc(Br)c(Cl)c1 [Compound 73, 3-Cl, 4-Br BSHL] | 98% | 118 | fold less potent than 43 (RhlR; E. coli RhlR reporter IC50): over 2 fold
23 | CCCCS(=O)(=O)N[C@H]1CCOC1=O [Compound 74] | 70% | – | IC50 (RhlR; [2]): 35.2 µM; IC50 (RhlR; [3]): ~28 µM
24 | O=C1OCC[C@@H]1NS(=O)(=O)c1ccc(C(F)(F)F)cc1 [Compound 37] | 99% | 333 | –
25 | O=C1OCC[C@@H]1NS(=O)(=O)c1ccccc1Cl [Compound 27, 2-chloro BSHL] | 93% | 545 | effect on bacterial growth (bacterial growth): modest effect on bacterial growth
26 | O=C1OCC[C@@H]1NS(=O)(=O)c1cccc(F)c1 [Compound 88, 3-fluoro BSHL] | 92% | 120 | –
27 | Cc1ccc(CC(=O)N[C@H]2CCOC2=O)cc1 [Compound C19, 4-Me PHL, reference compound] | 89% | 5.46 | –
28 | O=C1OCC[C@@H]1NS(=O)(=O)c1ccc(Cl)c(Cl)c1Cl [Compound 45, 2,3,4-tri-Cl BSHL] | 80% | 1030 | reduction of potency relative to 3,4-Cl BSHL (43) (RhlR; E. coli RhlR reporter IC50): at least 2 orders of magnitude
29 | O=C1OCC[C@@H]1NS(=O)(=O)c1ccc(I)cc1 [Compound 36] | 99% | 295 | –
30 | O=C1OCC[C@@H]1NS(=O)(=O)c1ccc(Cl)cc1 [Compound 26] | 96% | 452 | effect on bacterial growth (bacterial growth): modest effect on bacterial growth
31 | CCCCCCS(=O)(=O)N[C@H]1CCOC1=O [Compound 18] | 77% | – | IC50 (RhlR; [2]): 36.4 µM; IC50 (RhlR; [3]): ~28 µM
32 | COc1cccc(S(=O)(=O)N[C@H]2CCOC2=O)c1 [Compound 48] | 88% | 210 | –
33 | O=C1OCC[C@@H]1NS(=O)(=O)Cc1ccc(Cl)cc1 [Compound 21, 4-Cl BnSHL] | 99% | 219 | fold more potent in RhlR than 13 or 16 (RhlR; E. coli RhlR reporter IC50): approximately 3 fold
34 | O=C1OCC[C@@H]1NS(=O)(=O)c1ccc(Cl)cc1Cl [Compound 24, 2,4-di-Cl-BSHL] | 99% | 1590 | –
35 | O=C1OCC[C@@H]1NS(=O)(=O)c1ccc(Cl)c(C(F)(F)F)c1 [Compound 60] | 90% | 93.1 | –
36 | O=C1OCC[C@@H]1NS(=O)(=O)c1ccc(Br)cc1 [Compound 35, 4-bromo BSHL] | 99% | 166 | effect on bacterial growth (bacterial growth): modest effect on bacterial growth
